Test results as given in US12636368B2, “Ionizable lipids for nucleic acid delivery” (Global Life Sciences Solutions Canada ULC, priority 2019, dated 2026).
Like-named read-outs stand apart in the source and are kept apart here.

Experiments:
[1] = TNS assay, surface pKa of lipid nanoparticles; assay type: physicochemical
Procedure: In embodiments of the invention, the experimental pKa of formulated lipid nanoparticles comprising lipids in Table 1 is calculated using the 2-(p-toluidinyl)naphthalene-6-sulfonic acid (TNS) assay. The procedure for the TNS assay is described in Example 25.
The pKa of each cationic lipid was determined in lipid nanoparticles using an assay based on fluorescence of 6-(p-Toluidino)-2-naphthalenesulfonic acid sodium salt (TNS, Sigma Aldrich), which is a fluorescent probe for the conformational state of proteins5. Empty lipid nanoparticles comprising ionizable lipid in LM02 composition in distilled water at a concentration of 3.125 mM total lipid are formulated using NanoAssemblr® Spark™, and were then was characterized for LNP quality on the Zetasizer™ using a 30× dilution with 1×PBS in the low volume cuvette. Lipid nanoparticles were further diluted 4× using distilled water to 0.781 mM total lipid. TNS was prepared as a 25 μM stock solution in distilled water. Then 6.4 μL of diluted LNP samples of 0.781 mM total lipid were mixed with 10 μL of diluted TNS to a final volume of 250 μL with buffer containing 10 mM HEPES, 10 mM MES, 10 mM NH4OAc and 130 mM NaCl where the pH ranged from 3 to 9 in 0.5 pH increments.
Samples were mixed thoroughly, and the fluorescence intensity was measured at room temperature in a BioTek™ Synergy™ H1 Hybrid Multi-Mode Monochromator™ Fluorescence Microplate Reader using excitation and emission wavelengths of 321 nm and 445 nm respectively. A sigmoidal best fit analysis was applied to the fluorescence data using GraphPad Prism™ software, and the pKa was measured as the pH at half-maximal fluorescence intensity.

[2] = test system: C56BL/6 mice; assay: hEPO expression in mice after i.v. EPO mRNA LNPs; assay type: in vivo
Procedure: C56BL/6 mice were administered i.v doses of 0.5, 1 or 3 mg/Kg of recombinant human EPO-encoded mRNA LNPs containing ionizable lipids MC3, PNI 76, PNI 121 and PNI 127 using the LM02 composition at N/P 6; hEPO protein was measured using Quantikine® IVD® ELISA Human Erythropoietin Immunoassay protocol. Results for the 0.5 mg/Kg dosage are shown in the scatter plot of FIG. 7. Results for the 1 and 3 mg/Kg doses are shown in FIG. 8 as scatter plots of hEPO expression levels at 6 h (left) and 24 h (right).
In another study, 5-moU EPO mRNA encapsulated in LM02 LNP at an N/P ratio of 6 and a dose of 0.5 mg/Kg comprising a variety of […] ionizable lipids (PNI 336, PNI 534, PNI 535, PNI 342, PNI 321, PNI 532, PNI 538, PNI 541, PNI 325, PNI 328, PNI 329, PNI 539, PNI 540, PNI 127); along with MC3 as a control, were administered. hEPO protein was measured using ProteinSimple® Ella platform, and the rhEPO microfluidic cartridges provided by the manufacturer.
Blood from mice treated with hEPO mRNA LNP was analyzed using an automated ELISA platform “ELLA”, using Simplex™ antibody panel cartridges. Human-specific EPO and mouse-specific IL-5, IL-6, TNF-α, and IFN-γ were measured (reagents from Bio-techne). Briefly, 50 μL of sample reagent (diluted biological sample, quality control, or calibration point sample) were aliquoted into each sample inlet, and 1 mL of wash buffer was added into corresponding inlets on the cartridge. All immunoassay operations (including prime system, flow samples and split them into channels, sample incubation, wash, rehydrate and flow secondary antibody, wash, rehydrate and flow streptavidin dye conjugate, incubate, wash, scan) were processed automatically. Raw signal levels (relative fluorescence units, RFUs), mean signal values, standard deviation, and coefficient of variance (CV) for each glass nanoReactor (GNR) value are provided. RFU values are automatically backfit by the ELLA to produce an analyte concentration per analyte/sample using the manufacturer given calibration methodology.
Reagents were acquired from Quantikine, Minneapolis, MN. The assay was performed as directed on the Quantikine® IVD® ELISA Human Erythropoietin Immunoassay protocol REF DEP00 Package Insert. Briefly; Sera samples of 6 h, and/or 24 h post intravenous administration of 0.5, 1 or 3 mg/kg dose of EPO-encoded mRNA were analyzed for EPO expression analysis, and expressed as mIU/mL. To an EPO antibody pre-coated 96-well microplate, provided by the manufacturer, standards, appropriately diluted sera, and the Horseradish peroxidase (HRP)-conjugated rabbit anti-EPO polyclonal antibody and TMB (Tetramethylbenzidine) as the substrate were added and incubated for 20 minutes. Stop solution (Sulfuric Acid) was added to the wells and the plate was read at 450 nm and the concentration of EPO was calculated. The amount of colour generated is directly proportional to the amount of the conjugate bound to EPO antibody, which in turn is directly proportional to the amount of EPO in the specimen or standard. A standard curve was generated by plotting absorbance versus concentration of provided standards. Quantikine® Human Serum Controls (CEP 01, CEP 03) were used for internal controls.

[3] = LNP size and PDI by dynamic light scattering; assay type: physicochemical
Procedure: After the lipid particles were made as described supra, particle size (hydrodynamic diameter of the particles) was determined by Dynamic Light Scattering (DLS) using a ZetaSizer™ Nano ZS™ (Malvern Instruments, UK). He/Ne laser tuned to 633 nm wavelength was used as the light source. Data were measured from the scattered intensity data conducted in backscattering detection mode (measurement angle=173). Measurements were an average of 10 runs of two cycles each per sample. Z-Average size was reported as the particle size, and is defined as the harmonic intensity averaged particle diameter.
(§1) Physical characteristics of lipid nanoparticle (LNP) compositions comprising compounds according to Formula (I) and that were manufactured on the NanoAssemblr® Spark and Benchtop, are shown in Tables 6 and 7 below. Size, size variation of the LNP (PDI), encapsulation efficiency, and pKa are shown. The physical characteristics of these LNP are important from a standpoint of stability, biodistribution, and cell membrane crossing. There was good encapsulation in all the formulations, with polydispersity (PDI) under 0.3. Size and PDI were measured using dynamic light scattering techniques, and nucleic acid encapsulation efficiency was calculated from a modified Quant-iT RiboGreen RNA assay.

[4] = Nucleic acid encapsulation efficiency by RiboGreen assay; assay type: physicochemical
Procedure: Messenger RNA or plasmid NAT was diluted using sodium acetate buffer to the required concentration. Lipid nucleic acid particle samples were then prepared by running both fluids using the NanoAssemblr® Spark instrument. […] The lipid nucleic acid particles made in the instrument were immediately diluted down with 48 μL Ca and Mg free 1×PBS at pH 7.4 in the aqueous output well. These nucleic acid lipid particles were immediately collected into microcentrifuge tubes containing 96 μL of Ca and Mg free 1×PBS at pH 7.4. Encapsulation efficiency was measured by a modified Ribogreen™ assay (Quanti-iT RiboGreen™ RNA assay kit, Fisher). Observed particle attributes were generally sized from 60-200 nm for mRNA, depending on lipid composition and method of production.
as §1

[5] = test system: primary human T cells; assay: EPO ELISA after EPO mRNA LNP treatment of primary human T cells; assay type: cell-based; conditions: Table 5
Procedure: Reagents were acquired from Quantikine, Minneapolis, MN. The assay was performed as directed on the Quantikine® IVD® ELISA Human Erythropoietin Immunoassay protocol. REF DEP00 Package Insert. Briefly; primary human T cells were isolated from fresh whole blood using a negative selection protocol and activated using a triple activator. Seven days post-activation, T cells were dosed with mRNA LNPs encoding EPO at 2 pg mRNA per 500,000 cells and N/P 10. Quantikine® Human Serum Controls were used. After 48 hours of treatment with mRNA LNPs the T cells were harvested and lysed for cytosolic EPO and media supernatant was sampled for secreted EPO. Table 5 includes the data of FIG. 6 as well as the fold increase of EPO for PNI 76 and 121 versus MC3.

[6] = Table 6, GFP-encoded LNPs, CT10, N/P 8
[7] = Table 7, EPO mRNA LNPs, LM02, N/P 6

| pKa ([1]; Table 1, formulated lipid nanoparticles, TNS assay, read-out: Exp. pKa) | pKa ([1]; Table 8, read-out: Exp.pKa) | Diameter (Z. ave, nm) [3, 6] [nm] | Polydispersity Index (PDI) [3, 6] | Diameter (Z. ave, nm) [3, 7] [nm] | Polydispersity Index (PDI) [3, 7] | Encapsulation Efficiency (%) [4, 6] [%] | Encapsulation Efficiency (%) [4, 7] [%] | pKa Exp. ([1]; Table 5) | Compound | hEPO protein level compared with MC3 ([2]; FIG. 9, 5-moU EPO mRNA, LM02, N/P 6, 0.5 mg/Kg, 6 h) | protein expression in vivo compared with MC3 ([2]; summary, Table 7 and Figures) | EPO Fold Change Relative to MC3 [5] | EPO concentration (mIU/mL) ([5]; EPO mRNA LNPs, 2 pg mRNA per 500,000 cells, N/P 10, 48 hours) |
| --- | --- | --- | --- | --- | --- | --- | --- | --- | --- | --- | --- | --- | --- |
| 5.6 | 5.6 | 60.6 | 0.08 | 65.7 | 0.05 | 93.5 | 88.1 | – | CCCCC/C=C\C/C=C\CCCCCCCC(=O)O[C@@H]1[C@@H](OC(=O)CCCCCCC/C=C\C/C=C\CCCCC)CO[C@@H]1COC(=O)CC1CCCCN1C (mixture of isomers) [PNI 540] | compare well to MC3 | equivalent to MC3 | – | – |
| – | – | 77.2 | 0.11 | 65.1 | 0.04 | 88.6 | 98.8 | 5.99 | CCCCC/C=C\C/C=C\CCCCCCCCC(CCCCCCCC/C=C\C/C=C\CCCCC)OC(=O)CCCN(C)C [MC3, DLin-MC3-DMA, reference compound] | – | – | 1.0 | 545.2 |
